Patent publication US4252812A, “2-Substituted-trans-5-ar yl-2,3,4,4a,5,9b-hexahydro-1H-pyrido[4,3-b]indoles” (Pfizer Inc., priority 1980, dated 1981)
Counter-ions that a name gives are not always drawn. Like-named read-outs stand apart in the source and are kept apart here. Blank lines part the entries; values can stand above or below the compound they belong to.

Key:
[1] = test system: amphetamine-induced symptoms (cage movement) in rats; assay: Antagonism of amphetamine stereotypy in rats; format: in vivo, rat; details: for ED50: Rattus norvegicus; for ED50 (micrograms/kilograms) 1 Hr. / ED50 (mg./kg.) 1 Hr.: 60 min; for ED50 (micrograms/kilograms) 5 Hrs. / ED50 (mg./kg.) 5 Hrs.: 300 min; for ED50 (micrograms/kilograms) 24 Hrs. / ED50 (mg./kg.) 24 Hrs.: 1440 min; for ED50 (mg./kg.) 1 Hr. / ED50 (mg./kg.) 5 Hrs. / ED50 (mg./kg.) 24 Hrs. / ED50 (mg./kg.) 72 Hrs. / ED50 (mg./kg.) 48 Hrs.: Part D, enantiomers from Example 21; for ED50 (mg./kg.) 72 Hrs.: 4320 min; for ED50 (mg./kg.) 48 Hrs.: 2880 min
Protocol: Antagonism of Amphetamine Stereotypy in Rats Test Procedures and Results
The effects of the compounds of the present invention on prominent amphetamine-induced symptoms were studied in rats by a rating scale modeled after the one reported by Quinton and Halliwell, and Weissman. Groups of five rats were placed in a covered plastic cage measuring approximately 26 cm.×42 cm.×16 cm. […] They were then treated 1, 5 and 24 hrs. later with d-amphetamine sulfate, 5 mg./kg. intraperitoneally (i.p.). […] On the basis of dose-response data after amphetamine it was possible to determine the effective dose of the compound necessary to antagonize or block the characteristic amphetamine behavior of cage movement for fifty percent of the rats tested (ED50). The time of rating chosen coincides with the peak action of amphetamine which is 60-80 min. after treatment with this agent.
Employing the above-described procedure, the following 4a,9b-trans compounds were tested for their ability to block the behavior effects of amphetamine, the results being reported as the ED50 in mg./kg. at the indicated times: [drawing 31]
A. The following results were obtained on the mixture of diastereomers for those compounds wherein R contains a secondary alcohol group and on the single diastereomer of the other 4a, 9b-trans hexahydro-pyrido-indoles.
B. The results of tests in which compounds of the invention reported in Part A, above are compared with the corresponding δ-substituted-5-aryl-1,2,3,4-tetrahydropyrido[4,3-b]indoles of U.S. Pat. No. 4,001,263 are summarized below. For each pair the results obtained on the prior art compound (a) are given first and the results for the compound of the invention (b) are given second. Where indicated the test compound was also administered orally (p.o.) and tests were carried out for 48 hours.
C. Test results expressed as micrograms/kilograms, obtained on the diastereomers αβ and γδ separated in Example 13 and each of the enantiomers α, β, γ and δ resolved by the procedure of Example 14 are shown below. In each case the compounds are of the formula
The tests were carried out for 72 hours.

[2] = molecular target: dopamine receptors (Rattus norvegicus, UniProt P61169); assay: Inhibition of 3H-spiroperidol binding to dopamine receptors; parameters: species or system rat (Sprague-Dawley CD males); details: rat corpus striatum; 0.5 nM 3H-spiroperidol; 10 min at 37° C.; hydrochloride salts
[3] = sc, 1 h, Part A, 1 hr, test compound s.c. (method), read-out: ED50 (mg./kg.) 1 Hr.
[4] = sc, 5 h, Part A, 5 hr, test compound s.c. (method), read-out: ED50 (mg./kg.) 5 Hr.
[5] = sc, 24 h, Part A, 24 hrs, test compound s.c. (method), read-out: ED50 (mg./kg.) 24 Hrs.
[6] = ip, 1 h, Part B, 1 hr, i.p., read-out: ED50 (mg./kg.) 1 Hr.
[7] = ip, 5 h, Part B, 5 hrs, i.p., read-out: ED50 (mg./kg.) 5 Hrs.
[8] = ip, 24 h, Part B, 24 hrs, i.p., read-out: ED50 (mg./kg.) 24 Hrs.
[9] = sc, 1 h, read-out: ED50 (mg./kg.) 1 Hr.
[10] = sc, 5 h, read-out: ED50 (mg./kg.) 5 Hr.

dopamine receptors, sequence (P61169 whole entry): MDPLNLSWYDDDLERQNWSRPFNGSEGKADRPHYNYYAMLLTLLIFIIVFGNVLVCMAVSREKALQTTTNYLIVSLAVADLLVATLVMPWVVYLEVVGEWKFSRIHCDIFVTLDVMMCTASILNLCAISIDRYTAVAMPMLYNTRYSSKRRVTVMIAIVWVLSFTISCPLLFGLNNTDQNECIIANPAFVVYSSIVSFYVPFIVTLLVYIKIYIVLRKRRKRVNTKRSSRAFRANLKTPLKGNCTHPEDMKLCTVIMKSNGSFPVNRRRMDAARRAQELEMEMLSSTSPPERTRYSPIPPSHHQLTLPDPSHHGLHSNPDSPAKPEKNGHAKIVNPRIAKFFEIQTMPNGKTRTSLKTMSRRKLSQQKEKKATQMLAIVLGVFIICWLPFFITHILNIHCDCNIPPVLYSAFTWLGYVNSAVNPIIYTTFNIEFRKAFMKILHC

Structure (SMILES): COc1ccc(C(O)CCCN2CCC3C(C2)c2ccccc2N3c2ccccc2)cc1 (stereo not shown)
ED50 [1, 3]: 0.1 to 0.32 mg/kg
ED50 [1, 4]: 0.1 to 0.32 mg/kg
ED50 [1, 5]: ~1 mg/kg

Structure (SMILES): OC(CCCN1CC[C@@H]2[C@@H](C1)c1ccccc1N2c1ccccc1)c1ccccc1 (relative stereo)
ED50 [1, 6]: 0.032 to 0.1 mg/kg
ED50 [1, 7]: 0.032 to 0.1 mg/kg
ED50 [1, 8]: 0.1 to 0.32 mg/kg
ED50 [1, 3]: 0.032 to 0.1 mg/kg
ED50 [1, 4]: 0.032 to 0.1 mg/kg
ED50 [1, 5]: 0.1 to 0.32 mg/kg

Structure (SMILES): OC(CCCN1CC[C@@H]2[C@@H](C1)c1ccccc1N2c1ccccc1)c1ccc(F)cc1 (relative stereo)
ED50 [1, 3]: 0.1 to 0.32 mg/kg
ED50 [1, 4]: 0.1 to 0.32 mg/kg
ED50 [1, 5]: 0.1 to 0.32 mg/kg

Structure (SMILES): O=C(CCCN1CC[C@@H]2[C@@H](C1)c1ccccc1N2c1ccccc1)c1ccc(F)cc1 (relative stereo)
ED50 [1, 4]: 0.1 to 0.32 mg/kg

Structure (SMILES): OC(CCCN1CC[C@@H]2[C@@H](C1)c1cc(F)ccc1N2c1ccc(F)cc1)c1ccccc1 (relative stereo)
ED50 [1, 3]: 0.1 to 0.32 mg/kg
ED50 [1, 4]: 0.1 to 0.32 mg/kg
ED50 [1, 5]: < 0.32 mg/kg

Structure (SMILES): O=C(CCCN1CC[C@@H]2[C@@H](C1)c1cc(F)ccc1N2c1ccc(F)cc1)c1ccc(F)cc1 (relative stereo)
ED50 [1, 6]: < 1 mg/kg
ED50 [1, 7]: < 1 mg/kg
ED50 [1, 8]: < 1 mg/kg
ED50 [1, 3]: < 1 mg/kg
ED50 [1, 4]: < 1 mg/kg
ED50 [1, 5]: < 1 mg/kg

Structure (SMILES): c1ccc(CCCN2CC[C@@H]3[C@@H](C2)c2ccccc2N3c2ccccc2)cc1 (relative stereo) [X1=H, Y1=H, R=C6 H5 (CH2)3, reference compound]
ED50 [1, 3]: 3.2 to 10 mg/kg
ED50 [1, 4]: 3.2 to 10 mg/kg
ED50 [1, 5]: > 10 mg/kg

Structure (SMILES): c1ccc(CN2CC[C@@H]3[C@@H](C2)c2ccccc2N3c2ccccc2)cc1 (relative stereo) [X1=H, Y1=H, R=C6 H5 CH2, dl-trans-2-benzyl-2,3,4,4a,5,9b-hexahydro-5-phenyl-1H-pyrido-[4,3-b]indole Hydrochloride, reference compound]
ED50 [1, 3]: ~10 mg/kg
ED50 [1, 4]: 3.2 to 32 mg/kg
ED50 [1, 5]: > 3.2 mg/kg

Structure (SMILES): c1ccc(N2c3ccccc3[C@@H]3CNCC[C@H]32)cc1 (relative stereo) [X1=H, Y1=H, R=H, dl-trans-5-Phenyl-2,3,4,4a,5,9b-hexahydro-1H-pyrido[4,3-b]indole, reference compound]
ED50 [1, 9]: 3.2 to 32 mg/kg
ED50 [1, 10]: > 3.2 mg/kg
ED50 ([1]; sc, 24 h, read-out: ED50 (mg./kg.) 24 Hrs.): > 32 mg/kg

Structure (SMILES): OC(CCCN1CC[C@@H]2[C@@H](C1)c1cc(F)ccc1N2c1ccc(F)cc1)c1ccc(F)cc1 (relative stereo) [drawing 38]
ED50 [1, 6]: 0.032 to 0.1 mg/kg
ED50 [1, 7]: 0.032 to 0.1 mg/kg
ED50 [1, 8]: 0.032 to 0.1 mg/kg
ED50 ([1]; ip, 48 h, Part B, 48 hrs, i.p., read-out: ED50 (mg./kg.) 48 Hrs.): 0.1 to 0.32 mg/kg
ED50 ([1]; po, 1 h, Part B, 1 hr, p.o., read-out: ED50 (mg./kg.) 1 Hr.): 0.32 to 1 mg/kg
ED50 ([1]; po, 5 h, Part B, 5 hrs, p.o., read-out: ED50 (mg./kg.) 5 Hrs.): 0.1 to 0.32 mg/kg
ED50 ([1]; po, 24 h, Part B, 24 hrs, p.o., read-out: ED50 (mg./kg.) 24 Hrs.): 0.1 to 0.32 mg/kg
ED50 [1, 3]: 0.032 to 0.1 mg/kg

IC50 [2]: 0.023 µM
Structure (SMILES): OC(CCCN1CC[C@@H]2[C@@H](C1)c1cc(F)ccc1N2c1ccc(F)cc1)c1ccc(F)cc1 (relative stereo) [αβ, dl trans-8-fluoro-5-(p-fluorophenyl)-2-[4-hydroxy-4-(p-fluorophenyl)butyl]-2,3,4,4a,5,9b-hexahydro-1H-pyrido[4,3-b]indole]

IC50 [2]: 0.021 µM
Structure (SMILES): OC(CCCN1CC[C@@H]2[C@@H](C1)c1cc(F)ccc1N2c1ccc(F)cc1)c1ccc(F)cc1 (relative stereo) [αβγδ, dl-trans-8-Fluoro-5-(p-fluorophenyl)-2-[4-hydroxy-4-(p-fluorophenyl)butyl]-2,3,4,4a,5,9b-hexahydro-1H-pyrido[4,3-b]indole hydrochloride]
ED50 ([1]; sc, 1 h, Part C, 1 hr, s.c. (method), read-out: ED50 (micrograms/kilograms) 1 Hr.): 0.032 to 0.1 mg/kg
ED50 ([1]; sc, 5 h, Part C, 5 hrs, s.c. (method), read-out: ED50 (micrograms/kilograms) 5 Hrs.): 0.032 to 0.1 mg/kg
ED50 ([1]; sc, 24 h, Part C, 24 hrs, s.c. (method), read-out: ED50 (micrograms/kilograms) 24 Hrs.): 0.032 to 0.1 mg/kg

Structure (SMILES): OC(CCCN1CCC2C(C1)c1cc(F)ccc1N2c1ccc(F)cc1)c1ccc(F)cc1 (single isomer, unassigned) [α, 8-fluoro-5-(p-fluorophenyl)-2-[4-hydroxy-4-(p-fluorophenyl)butyl]-2,3,4,4a,5,9b-hexahydro-1H-pyrido[4,3-b]indole]
ED50 (micrograms/kilograms) 1 Hr. ([1]; Part C, 1 hr, s.c. (method)): 120 micrograms/kilograms
ED50 (micrograms/kilograms) 5 Hrs. ([1]; Part C, 5 hrs, s.c. (method)): 32-100 micrograms/kilograms
ED50 (micrograms/kilograms) 24 Hrs. ([1]; Part C, 24 hrs, s.c. (method)): 32-100 micrograms/kilograms
ED50 (mg./kg.) 1 Hr. ([1]; 1 hr): 0.023 mg/kg
ED50 (mg./kg.) 5 Hrs. ([1]; 5 hrs): 0.014 mg/kg
ED50 (mg./kg.) 24 Hrs. ([1]; 24 hrs): 0.033 mg/kg
ED50 (mg./kg.) 72 Hrs. [1]: > 10 mg/kg

Structure (SMILES): OC(CCCN1CCC2C(C1)c1cc(F)ccc1N2c1ccc(F)cc1)c1ccc(F)cc1 (single isomer, unassigned) [β, 8-fluoro-5-(p-fluorophenyl)-2-[4-hydroxy-4-(p-fluorophenyl)butyl]-2,3,4,4a,5,9b-hexahydro-1H-pyrido[4,3-b]indole hydrochloride]
IC50 [2]: 1.8 µM

Structure (SMILES): OC(CCCN1CCC2C(C1)c1cc(F)ccc1N2c1ccc(F)cc1)c1ccc(F)cc1 (single isomer, unassigned) [γ, 8-fluoro-5-(p-fluorophenyl)-2-[4-hydroxy-4-(p-fluorophenyl)butyl]-2,3,4,4a,5,9b-hexahydro-1H-pyrido[4,3-b]indole]
ED50 (micrograms/kilograms) 1 Hr. ([1]; Part C, 1 hr, s.c. (method)): 180 micrograms/kilograms
ED50 (micrograms/kilograms) 5 Hrs. ([1]; Part C, 5 hrs, s.c. (method)): 32-100 micrograms/kilograms
ED50 (micrograms/kilograms) 24 Hrs. ([1]; Part C, 24 hrs, s.c. (method)): 32-100 micrograms/kilograms
ED50 (mg./kg.) 1 Hr. ([1]; 1 hr): 0.178 mg/kg
ED50 (mg./kg.) 5 Hrs. ([1]; 5 hrs): 0.045 mg/kg
ED50 (mg./kg.) 24 Hrs. ([1]; 24 hrs): 0.018 mg/kg
ED50 (mg./kg.) 48 Hrs. ([1]; 48 hrs): ca. 1 mg./kg.
ED50 (mg./kg.) 72 Hrs. [1]: > 1 mg/kg

Structure (SMILES): OC(CCCN1CCC2C(C1)c1cc(F)ccc1N2c1ccc(F)cc1)c1ccc(F)cc1 (single isomer, unassigned) [δ, 8-fluoro-5-(p-fluorophenyl)-2-[4-hydroxy-4-(p-fluorophenyl)butyl]-2,3,4,4a,5,9b-hexahydro-1H-pyrido[4,3-b]indole]
ED50 (micrograms/kilograms) 1 Hr. ([1]; Part C, 1 hr, s.c. (method)): > 1000 micrograms/kilograms
ED50 (micrograms/kilograms) 5 Hrs. ([1]; Part C, 5 hrs, s.c. (method)): 560 micrograms/kilograms
ED50 (micrograms/kilograms) 24 Hrs. ([1]; Part C, 24 hrs, s.c. (method)): 320-1000 micrograms/kilograms
ED50 (mg./kg.) 1 Hr. ([1]; 1 hr): > 10 mg/kg
ED50 (mg./kg.) 5 Hrs. ([1]; 5 hrs): 5.7 mg/kg
ED50 (mg./kg.) 24 Hrs. ([1]; 24 hrs): > 10 mg/kg
ED50 (mg./kg.) 48 Hrs. ([1]; 48 hrs): > 10 mg/kg
ED50 (mg./kg.) 72 Hrs. [1]: > 10 mg/kg

Structure (SMILES): CCN1CCC2C(C1)c1ccccc1N2c1ccccc1 (stereo not shown) [X1=H, Y1=H, R=C2 H5, reference compound]
ED50 [1, 9]: ~1 mg/kg
ED50 [1, 10]: > 3.2 mg/kg
